Test results published in US8765746B2 (Millennium Pharmaceuticals, Inc., priority 2010, dated 2014).

Tests used:
Assay type in all cases: biochemical
[1] = target: T1, PI3Kgamma (Homo sapiens, UniProt P48736); assay: Human PI3K gamma enzyme assay (HTRF, as for PI3K alpha); conditions: read-out: PI3Kgamma % inh
T1 construct: His (N); host or cells: SF9 insect cells (baculovirus)
Outline: (§1)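 N-His p110β/δ co-expressed with untagged p85 in Sf9, p110γ alone. Enzyme 5.25 nM (β), 0.75 nM (δ), 5 nM (γ), with ATP 25 uM and di-C8 PI(4,5)P2 3.5 uM (added-solution levels), pH 7.00, 30 min RT. HTRF read-out: biotin-PIP3, GST-GRP-1 PH domain, Eu anti-GST, streptavidin-XL.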

[2] = target: T2, VPS34 (Homo sapiens, UniProt Q8NEB9); assay: Human VPS34 enzyme assay (Adapta Universal Kinase Assay); conditions: for inhibition at 1.11 µM: 1 h, read-out: VPS34 % ihn
T2 construct: GST (N); host or cells: SF9 insect cells (baculovirus)
Outline: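 Human VPS34, N-terminally GST-tagged and baculovirus-expressed in Sf9 cells. Solution with 20 uM ATP and 200 uM PI-PS added, then one with 5 nM enzyme (levels in each added solution), in buffer with 2 mM DTT and 2 mM MnCl2; 1 h at room temperature. ADP read by Adapta TR-FRET (Eu anti-ADP antibody, Alexa Fluor 647 tracer).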

[3] = target: T3, PI3Kbeta (Homo sapiens, UniProt P42338); assay: Human PI3K beta enzyme assay (HTRF, as for PI3K alpha); conditions: at 1.11 μM; for inhibition at 1.11 µM: read-out: PI3Kbeta % inh
T3 construct: His (N); host or cells: SF9 insect cells (baculovirus)
Outline: as §1

[4] = target: T4, PI3Kalpha (Homo sapiens, UniProt P42336); assay: Human PI3Kα enzyme assay (HTRF); conditions: for inhibition at 1.11 µM: read-out: PI3Kalpha % inh; for PI3Kalpha % inh: at 1.11 μM
T4 construct: His (N); host or cells: SF9 insect cells (baculovirus)
Outline: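 His-tagged p110α co-expressed with p85 in Sf9 cells was reacted for 30 min at room temperature in pH 7.00 Hepes buffer with 10 mM MgCl2. Addition solutions held 25 uM ATP, 3.5 uM di-C8 PI(4,5)P2 and 0.4875 nM enzyme. The reaction was quenched with EDTA/biotin-PIP3 and detected by HTRF (GST-GRP-1 PH domain, streptavidin-XL, Eu anti-GST) after 1 h.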

[5] = target: T5, PI3Kdelta (Homo sapiens, UniProt O00329); assay: Human PI3K delta enzyme assay (HTRF, as for PI3K alpha); conditions: read-out: PI3Kdelta % inh
T5 construct: His (N); host or cells: SF9 insect cells (baculovirus)
Outline: as §1

T3 sequence (P42338 whole entry): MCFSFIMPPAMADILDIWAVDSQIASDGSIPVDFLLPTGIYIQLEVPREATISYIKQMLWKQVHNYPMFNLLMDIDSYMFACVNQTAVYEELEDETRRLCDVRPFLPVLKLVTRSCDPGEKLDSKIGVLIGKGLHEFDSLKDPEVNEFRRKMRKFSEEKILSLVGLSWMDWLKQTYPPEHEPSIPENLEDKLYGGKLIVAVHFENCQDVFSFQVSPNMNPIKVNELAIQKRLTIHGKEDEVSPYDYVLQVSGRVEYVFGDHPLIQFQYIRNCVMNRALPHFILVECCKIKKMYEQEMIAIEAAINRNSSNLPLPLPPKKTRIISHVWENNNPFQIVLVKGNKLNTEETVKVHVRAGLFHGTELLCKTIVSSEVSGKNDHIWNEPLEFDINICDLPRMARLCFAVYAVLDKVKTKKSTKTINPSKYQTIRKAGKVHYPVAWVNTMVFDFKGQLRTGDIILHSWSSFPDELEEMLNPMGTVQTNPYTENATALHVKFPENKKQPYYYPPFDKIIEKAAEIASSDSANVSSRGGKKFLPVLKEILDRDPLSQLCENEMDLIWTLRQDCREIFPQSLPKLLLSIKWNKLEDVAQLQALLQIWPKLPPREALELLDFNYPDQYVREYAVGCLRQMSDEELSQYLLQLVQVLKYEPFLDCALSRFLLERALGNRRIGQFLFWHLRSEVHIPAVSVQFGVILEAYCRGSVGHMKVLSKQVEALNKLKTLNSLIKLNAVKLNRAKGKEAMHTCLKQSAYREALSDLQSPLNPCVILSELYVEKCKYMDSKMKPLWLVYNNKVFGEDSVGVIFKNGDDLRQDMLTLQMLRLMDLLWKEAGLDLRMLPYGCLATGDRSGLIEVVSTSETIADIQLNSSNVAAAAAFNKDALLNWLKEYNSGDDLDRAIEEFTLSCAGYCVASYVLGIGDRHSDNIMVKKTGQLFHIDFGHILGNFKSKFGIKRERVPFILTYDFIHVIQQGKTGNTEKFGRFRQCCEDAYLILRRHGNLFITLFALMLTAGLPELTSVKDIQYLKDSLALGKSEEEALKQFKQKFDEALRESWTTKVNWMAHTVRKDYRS
T3 sequence (P27986 whole entry partner): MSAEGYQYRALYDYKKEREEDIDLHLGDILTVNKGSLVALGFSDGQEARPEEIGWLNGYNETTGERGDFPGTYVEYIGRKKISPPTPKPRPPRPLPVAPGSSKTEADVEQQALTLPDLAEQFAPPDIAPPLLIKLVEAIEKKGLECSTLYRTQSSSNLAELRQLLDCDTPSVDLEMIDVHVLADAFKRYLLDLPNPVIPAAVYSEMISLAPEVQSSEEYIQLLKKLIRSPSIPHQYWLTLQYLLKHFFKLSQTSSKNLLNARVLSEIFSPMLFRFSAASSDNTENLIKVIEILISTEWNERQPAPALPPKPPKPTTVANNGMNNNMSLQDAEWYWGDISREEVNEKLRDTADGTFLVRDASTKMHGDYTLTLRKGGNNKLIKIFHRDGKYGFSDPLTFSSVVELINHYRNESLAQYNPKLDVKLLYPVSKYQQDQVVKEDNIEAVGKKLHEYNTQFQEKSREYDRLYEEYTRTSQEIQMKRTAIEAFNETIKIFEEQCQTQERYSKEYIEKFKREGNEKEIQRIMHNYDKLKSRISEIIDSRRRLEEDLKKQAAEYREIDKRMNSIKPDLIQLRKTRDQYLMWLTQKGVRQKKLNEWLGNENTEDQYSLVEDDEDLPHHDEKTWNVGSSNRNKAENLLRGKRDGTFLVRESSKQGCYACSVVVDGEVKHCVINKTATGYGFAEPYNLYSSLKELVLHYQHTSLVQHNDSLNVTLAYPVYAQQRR
T1 sequence (P48736 whole entry): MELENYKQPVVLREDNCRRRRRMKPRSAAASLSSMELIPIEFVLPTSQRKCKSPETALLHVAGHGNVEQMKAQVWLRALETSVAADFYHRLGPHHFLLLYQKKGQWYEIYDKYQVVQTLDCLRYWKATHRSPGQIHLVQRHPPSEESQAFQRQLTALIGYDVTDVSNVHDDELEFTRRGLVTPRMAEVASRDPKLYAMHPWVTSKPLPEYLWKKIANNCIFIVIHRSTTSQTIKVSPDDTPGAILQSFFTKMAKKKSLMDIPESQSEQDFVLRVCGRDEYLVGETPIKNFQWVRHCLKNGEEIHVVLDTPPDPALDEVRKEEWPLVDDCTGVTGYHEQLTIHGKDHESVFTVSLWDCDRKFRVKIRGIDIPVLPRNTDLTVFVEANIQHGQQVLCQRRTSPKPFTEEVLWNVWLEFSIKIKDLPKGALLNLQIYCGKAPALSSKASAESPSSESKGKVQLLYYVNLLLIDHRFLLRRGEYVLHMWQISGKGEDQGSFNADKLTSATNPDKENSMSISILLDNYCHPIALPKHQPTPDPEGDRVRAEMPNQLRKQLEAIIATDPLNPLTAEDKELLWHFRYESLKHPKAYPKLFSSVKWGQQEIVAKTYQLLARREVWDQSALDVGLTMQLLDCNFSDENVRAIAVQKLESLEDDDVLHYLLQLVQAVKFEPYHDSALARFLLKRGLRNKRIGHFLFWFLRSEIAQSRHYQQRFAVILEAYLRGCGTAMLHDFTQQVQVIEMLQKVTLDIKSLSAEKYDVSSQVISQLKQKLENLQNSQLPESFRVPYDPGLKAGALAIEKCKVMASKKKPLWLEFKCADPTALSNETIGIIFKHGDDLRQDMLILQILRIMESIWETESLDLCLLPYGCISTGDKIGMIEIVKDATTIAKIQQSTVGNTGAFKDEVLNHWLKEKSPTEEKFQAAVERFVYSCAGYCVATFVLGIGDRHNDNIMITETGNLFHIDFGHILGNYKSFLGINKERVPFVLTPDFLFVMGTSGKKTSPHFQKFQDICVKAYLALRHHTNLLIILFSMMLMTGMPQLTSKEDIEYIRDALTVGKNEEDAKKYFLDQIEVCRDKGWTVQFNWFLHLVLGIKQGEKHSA
T4 sequence (P42336 whole entry): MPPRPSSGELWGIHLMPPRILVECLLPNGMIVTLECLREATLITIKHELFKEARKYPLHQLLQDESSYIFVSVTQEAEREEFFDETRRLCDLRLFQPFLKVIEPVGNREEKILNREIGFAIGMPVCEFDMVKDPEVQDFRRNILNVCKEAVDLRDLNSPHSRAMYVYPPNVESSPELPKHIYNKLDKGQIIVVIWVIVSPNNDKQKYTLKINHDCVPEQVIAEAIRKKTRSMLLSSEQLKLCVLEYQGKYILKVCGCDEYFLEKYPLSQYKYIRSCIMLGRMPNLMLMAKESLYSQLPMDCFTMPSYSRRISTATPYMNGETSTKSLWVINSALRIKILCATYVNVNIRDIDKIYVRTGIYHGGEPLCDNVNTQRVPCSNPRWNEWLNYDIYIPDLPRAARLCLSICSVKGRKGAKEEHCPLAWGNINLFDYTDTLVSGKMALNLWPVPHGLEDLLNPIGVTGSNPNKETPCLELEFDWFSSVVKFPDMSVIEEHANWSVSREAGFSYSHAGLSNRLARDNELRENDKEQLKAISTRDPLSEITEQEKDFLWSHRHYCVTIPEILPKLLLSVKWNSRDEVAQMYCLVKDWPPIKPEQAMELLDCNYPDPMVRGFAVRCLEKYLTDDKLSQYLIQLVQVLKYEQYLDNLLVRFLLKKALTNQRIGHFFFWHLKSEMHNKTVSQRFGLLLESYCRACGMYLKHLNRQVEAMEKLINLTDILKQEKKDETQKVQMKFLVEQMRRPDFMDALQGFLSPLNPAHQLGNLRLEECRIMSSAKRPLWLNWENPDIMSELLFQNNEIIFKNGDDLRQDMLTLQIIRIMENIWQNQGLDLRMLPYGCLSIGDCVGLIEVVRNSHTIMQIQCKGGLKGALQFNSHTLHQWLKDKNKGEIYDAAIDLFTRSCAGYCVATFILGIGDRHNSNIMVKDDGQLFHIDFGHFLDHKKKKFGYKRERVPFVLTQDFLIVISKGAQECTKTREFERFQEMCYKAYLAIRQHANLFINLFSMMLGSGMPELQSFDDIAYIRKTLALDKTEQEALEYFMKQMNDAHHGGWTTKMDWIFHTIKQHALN
T4 sequence (P27986 whole entry partner): as the sequence (P27986 whole entry partner) above
T5 sequence (O00329 whole entry): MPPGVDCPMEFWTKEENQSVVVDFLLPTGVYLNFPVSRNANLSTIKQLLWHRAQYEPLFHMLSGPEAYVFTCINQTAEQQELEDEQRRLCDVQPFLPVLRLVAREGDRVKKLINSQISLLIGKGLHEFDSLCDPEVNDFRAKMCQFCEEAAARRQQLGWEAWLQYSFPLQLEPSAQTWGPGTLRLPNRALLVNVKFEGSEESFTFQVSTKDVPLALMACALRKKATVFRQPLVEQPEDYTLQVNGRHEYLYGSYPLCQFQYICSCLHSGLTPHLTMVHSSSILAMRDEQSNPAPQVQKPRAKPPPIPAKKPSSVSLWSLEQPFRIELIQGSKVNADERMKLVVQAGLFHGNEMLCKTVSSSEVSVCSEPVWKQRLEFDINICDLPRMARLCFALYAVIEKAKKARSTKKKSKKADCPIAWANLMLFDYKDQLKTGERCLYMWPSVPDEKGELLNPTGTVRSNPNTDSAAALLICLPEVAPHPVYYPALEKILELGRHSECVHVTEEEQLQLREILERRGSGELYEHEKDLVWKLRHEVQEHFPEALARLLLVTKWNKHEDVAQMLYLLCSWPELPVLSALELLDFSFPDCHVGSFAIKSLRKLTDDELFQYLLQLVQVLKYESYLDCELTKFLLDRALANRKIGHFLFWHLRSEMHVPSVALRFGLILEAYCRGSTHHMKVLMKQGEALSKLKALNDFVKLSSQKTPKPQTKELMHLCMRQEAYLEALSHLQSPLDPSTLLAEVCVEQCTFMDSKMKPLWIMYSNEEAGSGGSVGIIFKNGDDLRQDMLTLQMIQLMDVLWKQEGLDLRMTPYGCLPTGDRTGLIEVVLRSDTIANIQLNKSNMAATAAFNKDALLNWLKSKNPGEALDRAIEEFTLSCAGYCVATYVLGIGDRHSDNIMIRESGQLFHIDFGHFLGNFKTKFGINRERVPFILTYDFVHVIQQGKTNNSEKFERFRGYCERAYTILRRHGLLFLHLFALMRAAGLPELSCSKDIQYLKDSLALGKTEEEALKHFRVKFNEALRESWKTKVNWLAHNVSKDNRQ
T5 sequence (P27986 whole entry partner): as the sequence (P27986 whole entry partner) above

inhibition at 1.11 µM [1] [%] | inhibition at 1.11 µM [2] [%] | inhibition at 1.11 µM [3] [%] | inhibition at 1.11 µM [4] [%] | inhibition at 1.11 µM [5] [%] | PI3Kbeta % inh [3] [%] | PI3Kalpha % inh [4] [%] | VPS34 % ihn ([2]; at 1.11 μM) [%] | Structure (SMILES)
6.39 | 7.04 | 79.4 | 9.58 | 30.3 |  |  |  | CC1(C)NC(=O)c2sc(-c3ccncc3)cc2C1c1ccc(Cl)cc1 (centres unmarked) [Compound 191, 4-(4-chlorophenyl)-5,5-dimethyl-2-(pyridin-4-yl)-5,6-dihydrothieno[2,3-c]pyridin-7(4H)-one]
14.9 | 8.01 | 86.6 | 8.93 | 62.9 |  |  |  | CN1CC(c2ccc(Cl)cc2)c2cc(N3CCOCC3)sc2C1=O (centres unmarked) [Compound 198, 4-(4-chlorophenyl)-6-methyl-2-morpholino-5,6-dihydrothieno[2,3-c]pyridin-7(4H)-one]
5.88 |  | 73 |  | 34.6 |  | 5.17 | −0.70 | O=C1CCC(O)C(c2ccc(Cl)cc2)c2cc(-c3ccncc3)sc21 (centres unmarked) [Compound 210, 4-(4-chlorophenyl)-5-hydroxy-2-pyridin-4-yl-4,5,6,7-tetrahydro-8H-cyclohepta[b]thiophen-8-one]

Second part, the compound before the results:

Structure (SMILES) | inhibition at 1.11 µM [1] [%] | inhibition at 1.11 µM [2] [%] | inhibition at 1.11 µM [3] [%] | inhibition at 1.11 µM [4] [%] | inhibition at 1.11 µM [5] [%] | PI3Kbeta % inh [3] [%] | PI3Kalpha % inh [4] [%] | VPS34 % ihn ([2]; at 1.11 μM) [%]
O=C1NCCC(c2ccc(Cl)c(Cl)c2)c2cc(N3CCOCC3)sc21 (centres unmarked) [Compound 185, 4-(3,4-dichlorophenyl)-2-(morpholin-4-yl)-4,5,6,7-tetrahydro-8H-thieno[2,3-c]azepin-8-one] | 53.4 | 47.8 | 106 | 27.7 | 110 |  |  | 
O=C1CC(c2cccc(Cl)c2)c2cc(N3CCOCC3)sc21 (centres unmarked) [Compound 186] | 23.3 | 26.8 | 92.3 | 15.1 | 74.9 |  |  | 
N#Cc1c(N2CCOCC2)sc2c1C(c1ccc3ccccc3c1)CCNC2=O (centres unmarked) [Compound 188] | 62.3 | 12.9 | 117 | 102 | 110 |  |  | 
O=C1NCCC(c2ccc3ccccc3c2)c2nc(N3CCOCC3)sc21 (centres unmarked) [Compound 209] | 49.5 | 42.1 |  |  | 110 | 114.75 | 81.32 | 
